Here are results for 4 compounds from patent US11566041B2, “Nucleotide prodrug compounds” (Ligand Pharmaceuticals Incorporated, priority 2020, dated 2023).

Data set [1] can be described thus: Tissue distribution following oral administration: blood metabolite nucleoside and liver nucleoside triphosphate levels. Conditions: rat, in vivo, 5 mg/kg; for Blood Nuc level at 1 hour / Liver NTP level at 1 hour / Blood Nuc level at 5 hours / Liver NTP level at 5 hours: po. Also on record: species or system rats. The protocol:
IV Remdesivir (2 mg/kg), oral Remdesevir (5 mg/kg) and oral test compound (5 mg/kg) were administered to rats. Oral administration was to fasted rats by oral gavage. Plasma concentrations of the metabolite nucleoside in circulation were determined by HPLC-UV, and the liver concentrations of the active triphosphate were measured by LC-MS using standard chromatography methods.
FIG. 4 is a graph showing the ratio of (concentration of corresponding nucleoside in the liver)/(concentration of corresponding nucleoside in the blood) after 1 and 5 hours from the second study.
Table 1 contains the blood and liver levels after 1 and 5 hours for a number of test compounds compared to oral Remdesivir.

A short description of data set [2]: Tissue distribution following inhalation administration: blood and lung metabolite nucleoside and lung triphosphate levels. In kind it is in vivo, rats. The protocol: Remdesivir or the indicated test compound was administered at 2 mg/kg to rats by an inhalation route. The lung concentrations of the metabolite nucleoside and its triphosphate were measured by LC-MS using standard chromatography methods.

For `CCOC(=O)c1ccccc1COP1(=O)OC[C@H]2O[C@@](C#N)(c3ccc4c(N)ncnn34)[C@H](O)[C@@H]2O1` (stereo partly drawn) [Compound 101, Ethyl 2-((((4aR,6R,7R,7aS)-6-(4-aminopyrrolo[2,1-f][1,2,4]triazin-7-yl)-6-cyano-7-hydroxy-2-oxidotetrahydro-4H-furo[3,2-d][1,3,2]dioxaphosphinin-2-yl)oxy)methyl)benzoate], in data set [1], the “Blood Nuc level at 1 hour” value is under 1x, the “Liver NTP level at 1 hour” value is on record as at least 2x, the “Blood Nuc level at 5 hours” value is recorded as under 1x and the “Liver NTP level at 5 hours” value is recorded as at least 2x.
For `CCOC(=O)c1ccccc1COP1(=O)OC[C@H]2O[C@@](C#N)(c3ccc4c(N)ncnn34)[C@H](OC(=O)CC)[C@@H]2O1` (stereo partly drawn) [Compound 106, Ethyl 2-((((4aR,6R,7R,7aR)-6-(4-aminopyrrolo[2,1-f][1,2,4]triazin-7-yl)-6-cyano-2-oxido-7-(propionyloxy)tetrahydro-4H-furo[3,2-d][1,3,2]dioxaphosphinin-2-yl)oxy)methyl)benzoate], in data set [1], the “Blood Nuc level at 1 hour” value is at least 2x, the “Liver NTP level at 1 hour” value was at least 2x, the “Blood Nuc level at 5 hours” value was at least 2x and the “Liver NTP level at 5 hours” value is recorded as at least 2x.
As for `CCC(CC)COC(=O)[C@H](C)N[P@](=O)(OC[C@H]1O[C@@](C#N)(c2ccc3c(N)ncnn23)[C@H](O)[C@@H]1O)Oc1ccccc1` [Remdesivir, reference compound], the “Nucleoside triphosphate levels in the lung” value in data set [2] (rats, 2 mg/kg inhalation route, FIG. 7) is “below the level of quantitation”.
Regarding `CCOC(=O)c1ccccc1COP1(=O)OC[C@H]2O[C@@](C#N)(c3ccc4c(N)ncnn34)[C@H](OC(C)=O)[C@@H]2O1` (stereo partly drawn) [Compound 105, Ethyl 2-((((4aR,6R,7R,7aR)-7-acetoxy-6-(4-aminopyrrolo[2,1-f][1,2,4]triazin-7-yl)-6-cyano-2-oxidotetrahydro-4H-furo[3,2-d][1,3,2]dioxaphosphinin-2-yl)oxy)methyl)benzoate], in data set [2] (rat, in vivo, 2 mg/kg), the “Lung levels of the metabolite nucleoside, exposure relative to Remdesivir” value is “more than 4 times” and the “Nucleoside triphosphate levels in the lung” value is “significant lung exposure of the triphosphate”. Also, in data set [1], the “Liver exposure of nucleoside triphosphate relative to IV or oral Remdesivir” value was “significantly greater liver exposure than either IV or oral Remdesivir”, the “Blood Nuc level at 1 hour” value is listed as at least 2x*, the “Liver NTP level at 1 hour” value is at least 2x and the “Blood Nuc level at 5 hours” value is recorded as at least 2x. In addition, the “Liver NTP level at 5 hours” value in data set [1] was at least 2x.
